According to article PMC7180948, “New Insights into 4-Anilinoquinazolines as Inhibitors of Cardiac Troponin I–Interacting Kinase (TNNi3K)” (Molecules, 2020):

How the values were obtained:
Assay in all cases: biochemical
Set-up in all cases: KINOMEscan competition binding panel (Eurofins DiscoverX), single concentration, percent inhibition
Conditions in all cases: read-out: 15 at 1 µM % inhibition
[1] = target: ROS1 (Homo sapiens, UniProt P08922)
Procedure, shortened: (§1)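 Compounds were submitted at 1 µM to a KINOMEscan assay covering more than 400 human kinases. The screen served to define the selectivity profile.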

[2] = target: T1, MLK3 (Homo sapiens, UniProt Q16584)
T1 construct: gene MAP3K11
Procedure, shortened: as §1

[3] = target: PIK3CA(M1043I) (Homo sapiens, UniProt P42336, M1043I)
Procedure, shortened: as §1

[4] = target: AAK1 (Homo sapiens, UniProt Q2M2I8)
Chain of AAK1 (Q2M2I8 whole entry): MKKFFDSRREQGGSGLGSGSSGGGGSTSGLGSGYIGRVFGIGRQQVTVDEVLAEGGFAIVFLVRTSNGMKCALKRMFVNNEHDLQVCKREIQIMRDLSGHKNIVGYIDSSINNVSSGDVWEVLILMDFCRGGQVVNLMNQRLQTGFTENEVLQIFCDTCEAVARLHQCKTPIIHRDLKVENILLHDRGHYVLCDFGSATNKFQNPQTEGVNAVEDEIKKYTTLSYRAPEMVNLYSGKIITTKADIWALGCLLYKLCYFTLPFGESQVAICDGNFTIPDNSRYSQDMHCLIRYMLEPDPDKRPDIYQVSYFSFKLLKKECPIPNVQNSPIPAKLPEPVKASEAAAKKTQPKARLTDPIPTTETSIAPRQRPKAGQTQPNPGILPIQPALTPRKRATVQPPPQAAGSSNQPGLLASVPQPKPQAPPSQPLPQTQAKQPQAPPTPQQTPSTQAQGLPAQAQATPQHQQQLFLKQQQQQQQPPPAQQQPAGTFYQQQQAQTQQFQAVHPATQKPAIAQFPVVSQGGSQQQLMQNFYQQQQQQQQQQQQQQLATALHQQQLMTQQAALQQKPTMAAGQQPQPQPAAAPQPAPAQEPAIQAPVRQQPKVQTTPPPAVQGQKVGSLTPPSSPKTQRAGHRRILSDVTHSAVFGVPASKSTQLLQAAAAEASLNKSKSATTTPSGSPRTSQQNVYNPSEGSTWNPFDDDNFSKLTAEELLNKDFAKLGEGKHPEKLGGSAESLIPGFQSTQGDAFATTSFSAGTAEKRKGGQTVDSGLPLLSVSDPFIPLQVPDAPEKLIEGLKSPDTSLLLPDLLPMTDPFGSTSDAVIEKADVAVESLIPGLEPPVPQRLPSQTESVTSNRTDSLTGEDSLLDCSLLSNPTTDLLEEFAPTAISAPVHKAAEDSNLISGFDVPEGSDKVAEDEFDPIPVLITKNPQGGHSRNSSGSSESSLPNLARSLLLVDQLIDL
Procedure, shortened: as §1

[5] = target: NEK10 (Homo sapiens, UniProt Q6ZWH5)
Procedure, shortened: as §1

[6] = target: T2, VPS34 (Homo sapiens, UniProt Q8NEB9)
T2 construct: gene PIK3C3
T2 sequence (Q8NEB9 whole entry): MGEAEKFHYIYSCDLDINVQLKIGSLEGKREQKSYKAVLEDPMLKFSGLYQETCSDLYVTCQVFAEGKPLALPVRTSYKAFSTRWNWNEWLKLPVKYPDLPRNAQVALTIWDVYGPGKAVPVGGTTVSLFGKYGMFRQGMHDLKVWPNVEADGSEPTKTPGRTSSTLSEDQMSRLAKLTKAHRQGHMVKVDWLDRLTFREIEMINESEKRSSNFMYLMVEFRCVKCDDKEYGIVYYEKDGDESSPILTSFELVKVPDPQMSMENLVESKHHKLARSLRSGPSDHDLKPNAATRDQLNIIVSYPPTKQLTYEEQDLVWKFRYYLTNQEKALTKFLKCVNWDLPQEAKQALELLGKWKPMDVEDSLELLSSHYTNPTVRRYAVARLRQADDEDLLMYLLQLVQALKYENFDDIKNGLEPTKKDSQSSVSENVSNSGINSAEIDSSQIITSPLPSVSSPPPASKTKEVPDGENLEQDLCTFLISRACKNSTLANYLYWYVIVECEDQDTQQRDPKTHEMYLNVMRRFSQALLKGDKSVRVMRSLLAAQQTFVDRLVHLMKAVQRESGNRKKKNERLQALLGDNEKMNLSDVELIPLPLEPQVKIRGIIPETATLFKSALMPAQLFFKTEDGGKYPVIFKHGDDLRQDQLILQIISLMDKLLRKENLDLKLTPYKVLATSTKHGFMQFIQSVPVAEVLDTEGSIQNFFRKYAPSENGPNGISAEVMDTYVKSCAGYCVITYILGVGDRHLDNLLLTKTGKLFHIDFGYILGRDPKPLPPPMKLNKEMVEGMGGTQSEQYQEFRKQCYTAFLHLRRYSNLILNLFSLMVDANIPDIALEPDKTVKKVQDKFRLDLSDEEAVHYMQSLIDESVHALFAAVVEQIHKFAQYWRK
Procedure, shortened: as §1

[7] = target: FGFR1 (Homo sapiens, UniProt P11362)
Chain of FGFR1 (P11362 whole entry): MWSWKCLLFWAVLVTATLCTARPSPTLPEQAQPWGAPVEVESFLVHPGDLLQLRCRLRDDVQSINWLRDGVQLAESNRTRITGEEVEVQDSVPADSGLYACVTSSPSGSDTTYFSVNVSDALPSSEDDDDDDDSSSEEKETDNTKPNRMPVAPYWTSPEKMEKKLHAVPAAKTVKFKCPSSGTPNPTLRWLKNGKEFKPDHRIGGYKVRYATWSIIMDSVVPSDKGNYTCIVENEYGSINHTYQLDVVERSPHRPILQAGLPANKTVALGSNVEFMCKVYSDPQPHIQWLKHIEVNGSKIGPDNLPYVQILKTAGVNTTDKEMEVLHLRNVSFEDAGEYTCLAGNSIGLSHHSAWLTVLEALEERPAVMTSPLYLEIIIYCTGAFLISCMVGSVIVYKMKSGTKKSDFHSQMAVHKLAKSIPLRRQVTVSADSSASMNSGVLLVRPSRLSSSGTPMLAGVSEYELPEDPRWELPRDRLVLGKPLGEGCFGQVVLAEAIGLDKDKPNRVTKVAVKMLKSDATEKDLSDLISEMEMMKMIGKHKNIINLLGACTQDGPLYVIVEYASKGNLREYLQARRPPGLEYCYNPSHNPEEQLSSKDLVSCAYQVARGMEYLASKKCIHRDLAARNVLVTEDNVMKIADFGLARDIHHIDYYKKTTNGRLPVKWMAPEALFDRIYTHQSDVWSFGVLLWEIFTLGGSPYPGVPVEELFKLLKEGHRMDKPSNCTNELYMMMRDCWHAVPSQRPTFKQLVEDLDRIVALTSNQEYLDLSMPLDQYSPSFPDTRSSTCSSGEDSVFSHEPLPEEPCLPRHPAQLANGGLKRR
Procedure, shortened: as §1

[8] = target: CDK9 (Homo sapiens, UniProt P50750)
Chain of CDK9 (P50750 whole entry): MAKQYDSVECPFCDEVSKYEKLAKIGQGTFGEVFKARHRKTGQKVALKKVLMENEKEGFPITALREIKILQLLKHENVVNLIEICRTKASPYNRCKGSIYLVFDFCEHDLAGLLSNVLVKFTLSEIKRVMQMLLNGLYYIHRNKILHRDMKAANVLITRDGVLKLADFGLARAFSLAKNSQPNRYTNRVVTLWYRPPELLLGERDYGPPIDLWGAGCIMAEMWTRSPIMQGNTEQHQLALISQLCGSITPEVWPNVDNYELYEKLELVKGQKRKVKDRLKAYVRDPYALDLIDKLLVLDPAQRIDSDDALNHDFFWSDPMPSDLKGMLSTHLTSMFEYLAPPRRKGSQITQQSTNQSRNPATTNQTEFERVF
Procedure, shortened: as §1

[9] = target: LCK (Homo sapiens, UniProt P06239)
Procedure, shortened: as §1

[10] = target: MAP3K2 (Homo sapiens, UniProt Q9Y2U5)
Procedure, shortened: as §1

[11] = target: CSNK1G1 (Homo sapiens, UniProt Q9HCP0)
Procedure, shortened: as §1

[12] = target: T3, MEK1 (Homo sapiens, UniProt Q02750)
T3 construct: gene MAP2K1
Procedure, shortened: as §1

[13] = target: T4, ABL1(H396P)-phosphorylated (Homo sapiens, UniProt P00519, H396P)
T4 construct: phosphorylated
Procedure, shortened: as §1

[14] = target: MAST1 (Homo sapiens, UniProt Q9Y2H9)
Procedure, shortened: as §1

[15] = target: T5, ABL1(F317L)-nonphosphorylated (Homo sapiens, UniProt P00519, F317L)
T5 construct: nonphosphorylated
Procedure, shortened: as §1

[16] = target: T6, ASK2 (Homo sapiens, UniProt O95382)
T6 construct: gene MAP3K6
Procedure, shortened: as §1

[17] = target: T7, ERK2 (Homo sapiens, UniProt P28482)
T7 construct: gene MAPK1
Procedure, shortened: as §1

[18] = target: CSNK1A1 (Homo sapiens, UniProt P48729)
Chain of CSNK1A1 (P48729 whole entry): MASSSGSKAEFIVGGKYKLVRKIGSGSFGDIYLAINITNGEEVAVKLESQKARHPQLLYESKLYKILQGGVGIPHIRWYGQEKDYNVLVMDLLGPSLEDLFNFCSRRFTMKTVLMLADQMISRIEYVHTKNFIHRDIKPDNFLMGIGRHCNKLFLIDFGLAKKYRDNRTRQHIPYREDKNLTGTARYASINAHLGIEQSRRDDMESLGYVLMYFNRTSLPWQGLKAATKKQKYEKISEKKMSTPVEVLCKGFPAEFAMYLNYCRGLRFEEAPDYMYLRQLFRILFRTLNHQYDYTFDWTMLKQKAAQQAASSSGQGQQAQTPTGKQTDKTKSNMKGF
Procedure, shortened: as §1

[19] = target: T8, MKK7 (Homo sapiens, UniProt O14733)
T8 construct: gene MAP2K7
T8 sequence (O14733 whole entry): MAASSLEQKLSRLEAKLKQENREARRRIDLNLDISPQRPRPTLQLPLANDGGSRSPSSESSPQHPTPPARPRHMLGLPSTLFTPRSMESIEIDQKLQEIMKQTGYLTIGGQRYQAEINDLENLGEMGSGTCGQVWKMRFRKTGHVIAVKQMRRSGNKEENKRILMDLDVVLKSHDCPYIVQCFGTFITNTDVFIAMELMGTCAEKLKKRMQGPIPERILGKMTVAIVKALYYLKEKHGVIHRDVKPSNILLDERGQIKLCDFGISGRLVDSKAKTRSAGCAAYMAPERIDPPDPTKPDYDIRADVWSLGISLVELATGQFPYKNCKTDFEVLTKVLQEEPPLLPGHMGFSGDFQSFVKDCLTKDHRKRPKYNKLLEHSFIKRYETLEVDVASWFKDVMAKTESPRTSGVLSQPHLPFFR
Procedure, shortened: as §1

[20] = target: T9, RSK2(Kin.Dom.1-N-terminal) (Homo sapiens, UniProt P51812)
T9 construct: gene RPS6KA3; Kin.Dom.1-N-terminal
Procedure, shortened: as §1

[21] = target: NEK4 (Homo sapiens, UniProt P51957)
Procedure, shortened: as §1

[22] = target: FLT3(R834Q) (Homo sapiens, UniProt P36888, R834Q)
Procedure, shortened: as §1

[23] = target: BMPR2 (Homo sapiens, UniProt Q13873)
Chain of BMPR2 (Q13873 whole entry): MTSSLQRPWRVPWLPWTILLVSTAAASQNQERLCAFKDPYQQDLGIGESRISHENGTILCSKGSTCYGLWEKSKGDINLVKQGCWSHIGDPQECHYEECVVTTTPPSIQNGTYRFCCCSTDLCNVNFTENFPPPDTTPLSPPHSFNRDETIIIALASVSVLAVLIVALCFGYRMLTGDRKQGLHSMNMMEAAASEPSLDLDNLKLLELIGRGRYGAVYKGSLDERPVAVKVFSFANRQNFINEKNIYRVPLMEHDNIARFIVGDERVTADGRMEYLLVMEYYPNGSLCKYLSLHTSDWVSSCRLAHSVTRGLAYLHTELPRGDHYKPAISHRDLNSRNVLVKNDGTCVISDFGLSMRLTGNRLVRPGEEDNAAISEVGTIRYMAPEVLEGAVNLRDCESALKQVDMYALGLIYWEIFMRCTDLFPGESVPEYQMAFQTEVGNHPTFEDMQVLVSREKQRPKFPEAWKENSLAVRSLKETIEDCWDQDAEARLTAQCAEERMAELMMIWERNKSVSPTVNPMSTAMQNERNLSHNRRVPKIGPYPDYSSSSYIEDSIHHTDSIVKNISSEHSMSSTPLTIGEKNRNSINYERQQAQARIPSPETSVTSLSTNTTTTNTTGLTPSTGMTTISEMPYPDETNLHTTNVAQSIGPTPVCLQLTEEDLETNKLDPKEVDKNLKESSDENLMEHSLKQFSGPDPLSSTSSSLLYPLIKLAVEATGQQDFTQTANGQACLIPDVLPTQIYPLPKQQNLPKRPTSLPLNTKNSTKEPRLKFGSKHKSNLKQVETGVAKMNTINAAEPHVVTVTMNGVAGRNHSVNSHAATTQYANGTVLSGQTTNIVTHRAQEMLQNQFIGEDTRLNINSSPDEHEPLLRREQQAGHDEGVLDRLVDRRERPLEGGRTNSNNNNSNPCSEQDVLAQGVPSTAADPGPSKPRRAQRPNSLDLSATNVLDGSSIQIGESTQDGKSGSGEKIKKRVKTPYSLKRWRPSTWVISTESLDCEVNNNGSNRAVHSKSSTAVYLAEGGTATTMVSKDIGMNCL
Procedure, shortened: as §1

[24] = target: PIK3CB (Homo sapiens, UniProt P42338)
Procedure, shortened: as §1

With `CNS(=O)(=O)c1ccc(N(C)C)c(Nc2nc(C)nc3cc(OC)c(OC)cc23)c1` [compound 15, 3-((6,7-dimethoxy-2-methylquinazolin-4-yl)amino)-4-(dimethylamino)-N-methylbenzenesulfonamide] the inhibition at 1 µM [1] was 0%, the inhibition at 1 µM [2] was 0% and the inhibition at 1 µM [3] was 0%. It also gave an inhibition at 1 µM [4] of 4%, an inhibition at 1 µM [5] of 0% and an inhibition at 1 µM [6] of 25%. It also gave an inhibition at 1 µM [7] of 10%, an inhibition at 1 µM [8] of 0% and an inhibition at 1 µM [9] of 0%. The inhibition at 1 µM [10] was 18%, the inhibition at 1 µM [11] was 0% and the inhibition at 1 µM [12] was 18%. It also gave an inhibition at 1 µM [13] of 0%, an inhibition at 1 µM [14] of 14% and an inhibition at 1 µM [15] of 33%. It also gave an inhibition at 1 µM [16] of 0%, an inhibition at 1 µM [17] of 0% and an inhibition at 1 µM [18] of 0%. For the same compound, the inhibition at 1 µM [19] was 30%, the inhibition at 1 µM [20] was 15% and the inhibition at 1 µM [21] was 13%. The inhibition at 1 µM [22] was 32%, the inhibition at 1 µM [23] was 21% and the inhibition at 1 µM [24] was 25%.
